Reference: patent US5594024A, “Centrally actig substituted phenylazacycloalkanes” (priority 1995, dated 1997)
Read-outs that look alike come from different tables or passages of the source. One block for each compound: values may come before it.

Experiments:
D2 receptors = target: T1, D2 receptors (Rattus norvegicus, UniProt P61169); assay: D2 antagonist binding ([3H]-spiperone), rat striatum
T1 construct: Preparation of rat striatal membranes for (3H)-spiperone; from tissue; host or cells: rat striatum (striatal membranes)
T1 sequence (P61169 whole entry): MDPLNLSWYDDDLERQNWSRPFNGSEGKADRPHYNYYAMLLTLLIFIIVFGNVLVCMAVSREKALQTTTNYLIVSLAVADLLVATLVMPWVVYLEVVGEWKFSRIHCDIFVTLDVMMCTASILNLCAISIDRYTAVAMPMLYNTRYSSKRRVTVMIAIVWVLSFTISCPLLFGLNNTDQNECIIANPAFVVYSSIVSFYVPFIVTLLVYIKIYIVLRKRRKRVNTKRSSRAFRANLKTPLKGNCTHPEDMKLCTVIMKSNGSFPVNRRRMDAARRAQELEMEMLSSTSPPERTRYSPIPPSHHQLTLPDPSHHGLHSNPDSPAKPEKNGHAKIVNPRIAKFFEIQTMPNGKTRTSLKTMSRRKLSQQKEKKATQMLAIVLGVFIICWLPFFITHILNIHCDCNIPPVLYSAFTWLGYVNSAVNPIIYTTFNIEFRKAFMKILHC
Description: D2 antagonist binding. Preparation of rat striatal membranes for (3H)-spiperone (specific activity 21-24 Ci/mmol) binding was carried out in a similar manner as described for D1-binding, Hyttel et al., J. Neural. Transm., 68, 171 (1987).
IC50 values were calculated by semi-log plot and linear regression analysis.

5-HT1A = target: T2, 5-HT1A (Rattus norvegicus, UniProt P19327); assay: 5-HT1A radioligand binding ([3H]-8-OH-DPAT); parameters: species or system rat (male Sprague-Dawley); conditions: [3H]-8-OH-DPAT, rat cortex; read-out: in vitro binding IC50, 5HT1A
T2 construct: the whole brain with the exception of the brainstem and cerebellum was rapidly removed; from tissue
T2 sequence (P19327 1-422): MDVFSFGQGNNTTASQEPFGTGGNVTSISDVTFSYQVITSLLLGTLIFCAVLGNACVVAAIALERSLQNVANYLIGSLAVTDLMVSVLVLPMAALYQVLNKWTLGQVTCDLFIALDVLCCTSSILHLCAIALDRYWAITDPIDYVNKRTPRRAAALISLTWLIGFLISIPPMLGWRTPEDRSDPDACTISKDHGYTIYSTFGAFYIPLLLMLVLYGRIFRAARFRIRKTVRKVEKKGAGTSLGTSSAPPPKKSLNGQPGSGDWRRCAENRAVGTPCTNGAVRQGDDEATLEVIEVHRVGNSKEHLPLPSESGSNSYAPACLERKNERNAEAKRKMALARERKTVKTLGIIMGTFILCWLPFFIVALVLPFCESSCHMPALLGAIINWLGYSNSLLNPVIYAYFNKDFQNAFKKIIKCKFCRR
Description: ^b Serotonin 5HT1A ([^3 H]-8OH-DPAT, agonist) rat cortex.
5-HT1A radioligand binding. Male Sprague-Dawley rats (160-225 g) were killed by decapitation and the whole brain with the exception of the brainstem and cerebellum was rapidly removed, weighed and chilled in ice-cold 0.9% NaCl. Each brain was homogenized (Ultra-Turrax, 20 s) in 10 mL ice-cold 50 mM Tris buffer (pH 8.0 at 25° C.) containing 120 mM NaCl, 4 mM CaCl2 and 4 mM MgCl2 and centrifuged at 20,000 g's at 4° C. for 10 minutes. Pellets were resuspended in 10 mL fresh buffer and preincubated for 10 minutes in a 37° C. waterbath and then recentrifuged. Final pellets were homogenized in 100 volumes (w/v) of Tris buffer (as described above) containing 10 μM pargyline. The incubation tubes were kept on ice in triplicates and received 100 μL drug solution in water (or water for total binding) and 1000 μL membrane suspension (corresponds to 10 mg original tissue). The binding experiment was initiated by addition of 100 μL of (3H)-8-OH-DPAT (specific activity 143-158 Ci/mmol) in ascorbic acid (the final incubation concentration was 1 nM (3H)-8-OH-DPAT in 0.1% ascorbic acid). After incubation for 15 minutes at 37° C. the reaction was terminated by separation of the free radioligand from bound by rapid vacuum filtration using a cell harvester equipment (O. M. Teknik, Denmark). The tubes were rinsed with 4 mL and the filters (Whatman GF/F 25 mm) were washed twice with 4 mL ice-cold 0.9% NaCl.
The radioactivity of the filters was measured in a liquid scintillation counter (efficiency 41%) in 5 mL Picofluor®. Specific binding (70-75% of total binding) was defined as the radioactivity displaced by 10 μM 5-HT. IC50 values were calculated by semi-log plot and linear regression analysis.

DA receptor [1] = assay: DA metabolism (DOPAC, HVA levels) in habituated rats; assay type: in vivo, rat (male Sprague-Dawley); conditions: Rattus norvegicus, 1 h
Description: (§1) Footnotes Table 3. The rats were habituated to the motility meters 60 min
The rats were immediately killed after the activity session, striata
and limbic levels of DOPAC and 5HIAA were measured by means of HPLCEC. *p
In the experiments with habituated rats no NSD was administered and the animals were killed one hour after drug administration. […] The levels were expressed as % of controls (DOPAC and 5-HIAA see Table 3). The in vivo brain microdialysis experiments were performed in conscious rats as described by Waters et al., Eur. J. Pharm., 187, 425-34 (1990).
(§2) Injection volumes were 5 mL/kg.
After the activity session the rats were killed and the brain levels of HVA and DOPAC were measured (data are expressed as means ±SEM).

habituated rats = assay: Locomotor activity and behavior in habituated rats; assay type: in vivo, rat (male Sprague-Dawley); conditions: 100 μmol/kg sc, habituated rats; for response vs control in vivo at 100 µmol/kg: Rattus norvegicus, 1 h, 60 min, read-out: Motor Activity
Description: as §1
prior to the activity session.
as §2
Locomotor activity was measured in rats which were habituated 60 minutes to the activity meters before drug injection. The activity was measured for the subsequent 60 minutes and expressed as % of controls (means ±SEM, n=4).

5-HT receptor = assay: 5-HTP accumulation (5-HT synthesis rate) in non-pretreated rats after NSD 1015; assay type: in vivo, rat (male Sprague-Dawley)
Description: observations are commented to the right. After the session the rats were
accumulation in the NErich cortical regions and 5HTP in the limbic
as §2

DA receptor [2] = assay: DOPA accumulation (DA synthesis rate) in non-pretreated rats after NSD 1015
Description: injected with NSD 1015 (100 mg/kg, i.p.) and then killed 30 min later.
In-vivo determination of rat brain monoamine metabolites and tyrosine and tryptophan hydroxylation (biochemically monitored DA and 5-HT receptor agonist or antagonist activity).
The compounds under evaluation were tested biochemically for central DA and 5-HT receptor (pre- and/or postsynaptic) stimulating and/or blocking activity. The concept of this biochemical screening method is that a DA or 5-HT receptor agonist will stimulate the receptor and through regulatory negative feed-back systems induce a decline in tyrosine or tryptophan hydroxylating activity, respectively, and a subsequent reduction in the synthesis rate of DA and 5-HT in the presynaptic neuron. […] The biochemical experiments and the determinations of Dopa and 5-HTP by means of HPLC with electrochemical detection were performed. The antagonistic effects were seen as increases in the synthesis rate (n=4), as a result of the positive feed-back upregulation of synthesis. The effects on Dopa and 5-HTP accumulation are expressed as % of controls, which were: DOPA limbic system=447±23 ng/g and DOPA striatum=1045±47ng/g, 5-HTP limbic region 241±2 ng/g (Table 2).
(§3) Animals used in the biochemical and motor activity experiments were male rats of the Sprague-Dawley strain (ALAB, Sollentuna, Sweden), weighing 200-300 g. The rats were kept 5 per cage with free access to water and food (except for the starved animals for the experiments with per oral administration, who were only allowed water the last 18 hours before testing), at least one week from arrival until used in the experiments.
(§4) All substances to be tested were dissolved in saline immediately before use, occasionally with the addition of a few drops of glacial acetic acid and/or moderate heating in order to obtain complete dissolution. Injection volumes were 5 mL/kg.
Analysis of variance (ANOVA) followed by Fischer's test was used for the statistical calculations. P values less than 0.05 were regarded statistically significant.
DOPA accumulation (DA synthesis rate) in non-pretreated rats (Table 2). After the locomotor activity session (see Table 2, above) the rats were injected with the decarboxylase inhibitor NSD 1015 (100 mg/kg, sc) and killed 30 minutes later. The DOPA accumulation in the DA -rich limbic and striatal and the NE-rich cortical (mainly hemispheres) brain areas were expressed as % of saline treated controls.
DOPA accumulation, time course after s.c. and p.o. administration (Table 2). […] NSD 1015 (100 mg/kg, sc) was injected 30 minutes before death. The data are expressed as % of saline treated controls.

non-pretreated rats = assay: Locomotor activity and gross behavior in non-habituated (non-pretreated) rats; conditions: non-pretreated rats; for Motor Act.: 30 min
Description: Immediately after drug administration, the rats were placed in the test cages (one rat/cage) and put into the motility meters. […] Observations of gross behavior were made throughout the activity sessions through semi-transparent mirrors.
as §3, §4
Analysis of variance (ANOVA) followed by Fischer's test was used for the statistical calculations.
In vivo behavioral data was obtained with rats injected with drug and 5 minutes later put into the motility chambers for the first time. The motor activity was measured for the subsequent 30 minutes (accumulated counts/30 minutes) and expressed as % of saline treated controls.

[3] = read-out: in vitro binding IC50, D2 -spip, [3H]-spiperone, rat striatum
[4] = [3H]-spiperone, rat striatum, read-out: in vitro binding IC50, D2 -spip
[5] = 100 μmol/kg sc, habituated rats, read-out: DOPAC limbic
[6] = 100 μmol/kg sc, habituated rats, read-out: DOPAC striatum

Compound: CCCCN1CCC[C@@H](c2cccc(C#N)c2)C1 [Compound S-36, S-3-(3-Cyanophenyl-N-n-butyl)piperidine]
IC50 (D2 receptors; [3]): 3.7 µM | IC50 (5-HT1A): 5.6 µM

Compound: C=CCN1CCC[C@@H](c2cccc(C#N)c2)C1 [Compound S-37, S-3-(3-Cyanophenyl-N-allyl)piperidine]
IC50 (D2 receptors; [3]): 8.2 µM | IC50 (5-HT1A): 12 µM | response vs control in vivo at 100 µmol/kg (DA receptor [1]; sc, read-out: DOPAC limbic): 205 ± 17%

Compound: N#Cc1cccc([C@@H]2CCCN(CC3CC3)C2)c1 [Compound S-38, S-3-(3-Cyanophenyl-N-cyclopropylmethyl)piperidine]
IC50 (5-HT1A): 7.9 µM | response vs control in vivo at 100 µmol/kg (DA receptor [1]; sc, read-out: DOPAC limbic): 221 ± 8%

IC50 (D2 receptors; [4]): 0.63 µM | IC50 (5-HT1A): 0.15 µM
Compound: N#Cc1cccc([C@@H]2CCCN(CCc3ccccc3)C2)c1 [Compound S-39, S-3-((3-Cyanophenyl)-N-(2-phenylethyl))piperidine]
response vs control in vivo at 100 µmol/kg (DA receptor [1]; [5]): 169 ± 16% | response vs control in vivo at 100 µmol/kg (DA receptor [1]; [6]): 231 ± 14% | Behavioral observations (habituated rats): Activation | response vs control in vivo at 100 µmol/kg (habituated rats): 511 ± 69%

IC50 (D2 receptors; [4]): 0.89 µM | IC50 (5-HT1A): 0.4 µM
Compound: N#Cc1cccc([C@@H]2CCCN(CCc3cccs3)C2)c1 [Compound S-40, S-3-((3-Cyanophenyl)-N-(2-thiopheneethyl))piperidine]
response vs control in vivo at 100 µmol/kg (DA receptor [1]; [5]): 149 ± 17% | response vs control in vivo at 100 µmol/kg (DA receptor [1]; [6]): 201 ± 4% | Behavioral observations (habituated rats): Activation | response vs control in vivo at 100 µmol/kg (habituated rats): 500 ± 92%

Compound: CN1CCC[C@@H](c2cccc(C#N)c2)C1 [S-(+)-32, S-(+)-3-(3-Cyanophenyl-N-methyl)piperidine]
IC50 (D2 receptors; [4]): 50 µM | IC50 (5-HT1A): 14 µM | 5-HTP acc Limbic Region (5-HT receptor; 25 sc): 98 ± 7 % of saline controls | 5-HTP acc Limbic Region (5-HT receptor; 100 sc): 78 ± 2 % of saline controls | response vs control in vivo at 100 µmol/kg (DA receptor [1]; sc, read-out: DOPAC limbic): 110 ± 6% | response vs control in vivo at 100 µmol/kg (DA receptor [1]; sc, read-out: DOPAC striatum): 120 ± 5% | DOPA acc Cortex (DA receptor [2]; 25 sc): 91 ± 5 % of saline controls | DOPA acc Stratium (DA receptor [2]; 25 sc): 132 ± 9 % of saline controls | DOPA acc Cortex (DA receptor [2]; 100 sc): 109 ± 12 % of saline controls | DOPA acc Stratium (DA receptor [2]; 100 sc): 215 ± 6 % of saline controls | Gross Behavioral Observations (non-pretreated rats; 25 sc): No change | Motor Act. (non-pretreated rats; 25 sc): 128 ± 27 % of saline controls | Motor Act. (non-pretreated rats; 100 sc): 79 ± 2 % of saline controls

IC50 (D2 receptors; [4]): 75 µM | IC50 (5-HT1A): 6.3 µM
Compound: CCCN1CCC[C@@H](c2cccc(C(N)=O)c2)C1 [S-(-)-29, S-(-)-3-(3-Carbamoylphenyl-N-n-propyl)piperidine]

Compound: CCN1CCC[C@@H](c2cccc(C#N)c2)C1 [S-(-)-33, S-(-)-3-(3-Cyanophenyl-N-ethyl)piperidine]
IC50 (D2 receptors): 14 µM | IC50 (5-HT1A): 22 µM | 5-HTP acc Limbic Region (5-HT receptor; 25 sc): 83 ± 3 % of saline controls | 5-HTP acc Limbic Region (5-HT receptor; 100 sc): 77 ± 3 % of saline controls | response vs control in vivo at 100 µmol/kg (DA receptor [1]; sc, read-out: DOPAC limbic): 153 ± 15% | response vs control in vivo at 100 µmol/kg (DA receptor [1]; sc, read-out: DOPAC striatum): 167 ± 8% | Behavioral observations (habituated rats): Activation | response vs control in vivo at 100 µmol/kg (habituated rats): 431 ± 80% | DOPA acc Cortex (DA receptor [2]; 25 sc): 108 ± 7 % of saline controls | DOPA acc Stratium (DA receptor [2]; 25 sc): 282 ± 11 % of saline controls | DOPA acc Cortex (DA receptor [2]; 100 sc): 137 ± 7 % of saline controls | DOPA acc Stratium (DA receptor [2]; 100 sc): 318 ± 19 % of saline controls | Gross Behavioral Observations (non-pretreated rats; 25 sc): Weak stimul. | Motor Act. (non-pretreated rats; 25 sc): 157 ± 7 % of saline controls | Gross Behavioral Observations (non-pretreated rats; 100 sc): No change | Motor Act. (non-pretreated rats; 100 sc): 113 ± 7 % of saline controls

Compound: CCCN1CCC[C@@H](c2cccc(OC)c2)C1 [S-i, S-3-(3-Methoxyphenyl-N-n-propyl)piperidine]
IC50 (D2 receptors; [4]): 21 µM | IC50 (5-HT1A): 4.5 µM
